# Test results from ChEMBL document CHEMBL5236596, “Discovery and Optimization of N-Acyl-6-sulfonamide-tetrahydroquinoline Derivatives as Novel Non-Steroidal Selective Glucocorticoid Receptor Modulators” (J Med Chem, 2022).
# pIC50: −log10 of the molar value.
# Assays:
# Glucocorticoid receptor [1] = target: T1, Glucocorticoid receptor (Homo sapiens, UniProt P04150); experiment: Binding affinity to glucocorticoid receptor (unknown origin) by Lanthascreen TR-FRET competition binding assay
# T1 sequence (P04150 whole entry): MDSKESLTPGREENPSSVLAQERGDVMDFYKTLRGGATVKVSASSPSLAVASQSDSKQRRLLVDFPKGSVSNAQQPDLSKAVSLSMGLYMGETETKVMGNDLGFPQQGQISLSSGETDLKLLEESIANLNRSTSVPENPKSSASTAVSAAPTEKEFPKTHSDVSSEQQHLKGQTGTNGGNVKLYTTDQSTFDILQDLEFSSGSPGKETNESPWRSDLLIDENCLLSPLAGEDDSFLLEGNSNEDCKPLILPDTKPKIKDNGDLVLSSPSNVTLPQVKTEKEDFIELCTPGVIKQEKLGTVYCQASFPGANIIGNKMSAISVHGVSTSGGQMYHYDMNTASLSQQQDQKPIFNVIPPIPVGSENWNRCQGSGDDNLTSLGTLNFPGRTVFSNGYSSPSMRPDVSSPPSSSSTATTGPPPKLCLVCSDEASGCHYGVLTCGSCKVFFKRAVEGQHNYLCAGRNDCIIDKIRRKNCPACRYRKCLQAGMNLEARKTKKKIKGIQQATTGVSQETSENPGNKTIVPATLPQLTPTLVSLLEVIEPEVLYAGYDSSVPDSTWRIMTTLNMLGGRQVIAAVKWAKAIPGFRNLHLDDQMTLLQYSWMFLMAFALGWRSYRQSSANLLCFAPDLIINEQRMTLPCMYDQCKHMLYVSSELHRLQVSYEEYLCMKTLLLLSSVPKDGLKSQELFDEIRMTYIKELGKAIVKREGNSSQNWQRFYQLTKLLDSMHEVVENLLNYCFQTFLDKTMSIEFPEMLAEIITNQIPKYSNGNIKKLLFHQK
# Glucocorticoid receptor [2] = target: T1, Glucocorticoid receptor; experiment: Modulation of glucocorticoid receptor (unknown origin) transfected in human HeLa cells assessed as transrepression by measuring inhibition of TNF-alpha induced NF-kappaB signalling incubated for 18 hrs by dual-luciferase reporter based assay; assay type: cell-based
# Glucocorticoid receptor [3] = target: T1, Glucocorticoid receptor; experiment: Modulation of glucocorticoid receptor (unknown origin) transfected in human HeLa cells assessed as transrepression by measuring inhibition of PMA-induced AP-1 signalling incubated for 18 hrs by dual-luciferase reporter based assay; assay type: cell-based
# Glucocorticoid receptor [4] = target: T1, Glucocorticoid receptor; experiment: Antagonist activity at glucocorticoid receptor (unknown origin) transfected in human HeLa cells assessed as inhibition of dexamethasone-induced transactivation of receptor incubated for 18 hrs by firefly luciferase assay; assay type: cell-based
# NIH3T3 = experiment: Cytotoxicity against mouse 3T3 cells assessed as inhibition of cell growth; assay type: toxicity, cell-based
# GES1 = experiment: Cytotoxicity against human GES1 cells assessed as inhibition of cell growth; assay type: toxicity, cell-based
# [5] = Cytotoxicity against human Chang liver cells assessed as inhibition of cell growth; assay type: toxicity, cell-based
# [6] = Inhibition of LPS-induced IL-6 secretion in mouse primary peritoneal macrophages by ELISA; assay type: functional, cell-based; details: Peritoneal macrophage
# [7] = Inhibition of LPS-induced TNF-alpha secretion in mouse primary peritoneal macrophages by ELISA; assay type: functional, cell-based; details: Peritoneal macrophage
# [8] = Cmax in BALB/c mouse at 10 mg/kg, po; assay type: ADME, organism-based; set-up: dose 10 mg/kg, route po; details: in vivo
# [9] = Tmax in BALB/c mouse at 10 mg/kg, po; assay type: ADME, organism-based; details: in vivo
# [10] = Half life in BALB/c mouse at 10 mg/kg, po; assay type: ADME, organism-based; details: in vivo
# [11] = Oral bioavailability in BALB/c mouse at 10 mg/kg; assay type: ADME, organism-based; details: in vivo
# [12] = Toxicity in DNCB-induced BALB/c atopic dermatitis mouse model assessed as reduction in body weight at 5 to 20 mg/kg, po administered via gavage for 21 consecutive days starting from day 4 post DNCB stimulation; assay type: organism-based; details: in vivo, 504 h, dose 5-20 mg/kg, time 21 day
# [13] = Toxicity in DNCB-induced BALB/c atopic dermatitis mouse model assessed as body weight gain at 1 mg/kg, po administered via gavage for 21 consecutive days starting from day 4 post DNCB stimulation; assay type: organism-based; details: in vivo, 504 h, time 21 day
Compound,pIC50 (Glucocorticoid receptor [1]),pIC50 (Glucocorticoid receptor [2]),pIC50 (Glucocorticoid receptor [3]),pIC50 (Glucocorticoid receptor [4]),also measured
CC(C)[C@H](NC(=O)C(C)(F)F)[C@H](Oc1ccc2c(cnn2-c2ccc(=O)n(C)c2)c1)c1ccccc1 [MIZACORAT],–,–,–,–,Activity (NIH3T3): Toxic; Activity (GES1): Toxic; Activity [5]: Toxic
O=C(c1ccco1)N1CCCc2cc(N(S(=O)(=O)c3ccc(Cl)cc3)S(=O)(=O)c3ccc(Cl)cc3)ccc21,< 4.30,6.35,5.40,–,–
C[C@@H]1C[C@H]2[C@@H]3CCC4=CC(=O)C=C[C@]4(C)[C@@]3(F)[C@@H](O)C[C@]2(C)[C@@]1(O)C(=O)CO [DEXAMETHASONE],–,–,–,–,Activity (GES1): Non-Toxic; Activity [13]: Non-Toxic
COc1cc(C)c(Cl)cc1S(=O)(=O)Nc1ccc2c(c1)CCCN2C(=O)c1ncccn1,< 4.30,6.89,5.93,–,–
COc1ccc(C(=O)/C=C/c2cccc(OC)c2OC)cc1,–,–,–,–,pIC50 [6]: 5.00; pIC50 [7]: 5.00

# Now from value to compound, other results behind:
pIC50 (Glucocorticoid receptor [1]),pIC50 (Glucocorticoid receptor [2]),pIC50 (Glucocorticoid receptor [3]),pIC50 (Glucocorticoid receptor [4]),Compound,also measured
5.56,7.30,6.28,4.56,COc1cc(C)c(Cl)cc1S(=O)(=O)Nc1ccc2c(c1)CCCN2C(=O)N(C)C,–
5.50,6.33,5.57,4.92,COc1cc(C)c(Cl)cc1S(=O)(=O)Nc1ccc2c(c1)CCCN2C(C)=O,–
5.16,6.46,5.56,4.85,COc1cc(C)c(Cl)cc1S(=O)(=O)Nc1ccc2c(c1)CCCN2C(=O)c1ccc(F)cc1,–
< 5.00,< 5.00,5.19,< 5.00,O=C(c1ccco1)N1CCCc2cc(NS(=O)(=O)CCc3ccccc3)ccc21,–
5.72,8.05,6.89,4.72,COc1cc(C)c(Cl)cc1S(=O)(=O)Nc1ccc2c(c1)CCCN2C(=O)c1ccccc1,pIC50 [6]: 5.16; pIC50 [7]: 5.11; Activity (NIH3T3): Non-Toxic; Activity (GES1): Non-Toxic; Cmax [8]: 0.394 µg/mL; Tmax [9]: 5 min; half-life [10]: 30 min; bioavailability [11]: 19.8%; Activity [12]: Non-Toxic
5.71,5.88,5.30,–,O=C(c1ccco1)N1CCCc2cc(NS(=O)(=O)c3ccc4c(c3)CCO4)ccc21,–
